From US7226791B2, “Polynucleotides encoding novel guanylate binding proteins (GBP's)” (Bristol-Myers Squibb Company, priority 2003, dated 2007)

How the values were obtained:
MCP-1 = assay: TNFα-induced MCP-1 expression in human umbilical vein endothelial cells, ELISA; format: cell-based; conditions: HUVECs, 100 nM siRNA duplexes, 6 hours 10 ng/ml TNFα; FIG. 50B
Procedure: (§1) In some experiments, human umbilical vein endothelial cells (HUVECs, Clonetics Corp., San Diego, Calif., USA) were transfected using lipofectamine 2000 with 100 nM siRNA duplexes. Cells were cultured overnight, and then stimulated for 6 hours with 10 ng/ml TNFα. Supernatants were analyzed for MCP-1 and IL-8 levels by ELISA (Pharmingen, San Diego, Calif., USA). Cytokine levels were corrected for cell number using the CELL TITER kit (Promega).

IL-8 = assay: TNFα-induced IL-8 secretion in human umbilical vein endothelial cells, ELISA; format: cell-based; conditions: HUVECs, 100 nM siRNA duplexes, 6 hours 10 ng/ml TNFα
Procedure: as §1

GBP-2 = assay: siRNA knockdown of GBP-2 protein expression in Cos-7 cells, myc western blot; format: cell-based; conditions: Cos-7 cells co-transfected with GBP-2 expression vector, 40 nM siRNA duplex; FIG. 50A
Procedure: (§2) To test for knockdown of protein expression using siRNAs, Cos-7 cells were transfected as described herein with expression vectors encoding either GBP-1 or GBP-2 in the presence and absence of 40 nM siRNA duplex specific for either GBP-1 (“1–3”, […], (SEQ ID NO:79), Qiagen, Inc.) or GBP-2 (“582”, […] (SEQ ID NO:80), Sequitur Inc., Natick, Mass.). Approximately 18 hours following transfection, cells were harvested using trypsin, and lysed in RIPA buffer as described previously. Lysates were electrophoresed through 4–20% tris-glycine gels, transferred to nitrocellulose, blocked overnight with 5% non-fat dry milk and 0.3% BSA in Tris-buffered saline, and probed with a mouse monoclonal antibody specific for the myc epitope tag.

GBP-1 [1] = target: T1, GBP-1 (Homo sapiens, UniProt P32455); conditions: purified GBP-1 protein, GTP hydrolysis; read-out: Km for substrate; cited from earlier work
T1 sequence (P32455 1-592): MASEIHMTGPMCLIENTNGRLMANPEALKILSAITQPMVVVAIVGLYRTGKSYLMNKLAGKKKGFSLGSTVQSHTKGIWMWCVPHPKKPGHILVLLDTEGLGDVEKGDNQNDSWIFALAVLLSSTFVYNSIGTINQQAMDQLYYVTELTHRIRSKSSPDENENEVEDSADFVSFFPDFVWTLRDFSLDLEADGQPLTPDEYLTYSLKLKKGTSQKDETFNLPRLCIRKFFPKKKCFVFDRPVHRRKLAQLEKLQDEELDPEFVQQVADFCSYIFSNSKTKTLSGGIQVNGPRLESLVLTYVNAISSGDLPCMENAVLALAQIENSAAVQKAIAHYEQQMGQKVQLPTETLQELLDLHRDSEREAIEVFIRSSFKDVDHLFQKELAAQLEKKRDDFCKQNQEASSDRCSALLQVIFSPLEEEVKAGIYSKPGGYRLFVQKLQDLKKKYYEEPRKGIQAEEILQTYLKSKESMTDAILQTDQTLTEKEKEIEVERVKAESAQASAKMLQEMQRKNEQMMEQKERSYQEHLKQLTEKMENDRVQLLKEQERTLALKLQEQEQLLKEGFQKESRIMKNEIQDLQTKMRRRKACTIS

GBP-1 [2] = assay: siRNA knockdown of GBP-1 protein expression in Cos-7 cells, myc western blot; format: cell-based; conditions: Cos-7 cells co-transfected with GBP-1 expression vector, 40 nM siRNA duplex; FIG. 50A
Procedure: as §2

[3] = Guanine nucleotide binding: Cos-7 lysates on agarose coated with GMP, myc western blot; conditions: myc-tagged protein expressed in Cos-7 cells; FIG. 49
Procedure: (§3) Genes encoding different GBP family members were cloned into the vector pcDNA3.1mychis (Invitrogen) for expression in mammalian cells. Cos-7 cells were transfected with 5 μg of DNA per group using lipofectamine 2000 (Invitrogen) according to manufacturer's instructions. Approximately 18 hours after transfection, the cells were harvested using trypsin and lysed in RIPA buffer (10 mM sodium phosphate pH 7.2, 0.25 M sodium chloride, 0.1% SDS, 1% NP40, 1% sodium deoxycholate, 2 mM EDTA, protease inhibitor cocktail). An aliquot of the lysate was reserved for the whole cell lysate sample. The remainder was divided in thirds, and incubated for three hours at 4° C. with agarose coated with either GTP, GDP, or GMP (Sigma Chemical Company). The beads were pelleted, washed with buffer (0.1% NP40, 150 mM NaCl, 50 mM Tris pH7.5), and resuspended in SDS sample buffer. Samples were electrophoresed through 4–20% tris-glycine gels, transferred to nitrocellulose, blocked overnight with 5% non-fat dry milk and 0.3% BSA in Tris-buffered saline, and probed with a mouse monoclonal antibody specific for the myc epitope tag (Invitrogen).

[4] = Guanine nucleotide binding: Cos-7 lysates on agarose coated with GDP, myc western blot; conditions: myc-tagged protein expressed in Cos-7 cells; FIG. 49
Procedure: as §3

[5] = Guanine nucleotide binding: Cos-7 lysates on agarose coated with GTP, myc western blot; conditions: myc-tagged protein expressed in Cos-7 cells; FIG. 49
Procedure: as §3

## UUUGUAUUUCCUCCAACAUTT (SEQ ID NO:80) (chemistry not given here; listed as Homo sapiens) [Compound 582]
MCP-1
  inhibition of TNFα-induced MCP-1 expression: approximately 40%
IL-8
  inhibition of IL-8 secretion: failed to inhibit
GBP-2
  knockdown of GBP-2 protein expression: specific knockdown

## Nc1nc2c(ncn2[C@@H]2O[C@H](COP(=O)(O)OP(=O)(O)OP(=O)(O)O)[C@@H](O)[C@H]2O)c(=O)[nH]1 [GTP]
GBP-1 [1]
  Km: 470 µM

## GCUCGAGAAACUACAAGAUTT, (SEQ ID NO:79) [1–3]
MCP-1
  inhibition of TNFα-induced MCP-1 expression: 70%
GBP-1 [2]
  knockdown of GBP-1 protein expression: specific knockdown
IL-8
  inhibition of IL-8 secretion: failed to inhibit

B1: 4843—1: human guanylate binding protein HGBPBMY2, AA SEQ ID NO:5 (protein, listed as Homo sapiens)
chain: MESGPKMLAPVCLVENNNEQLLVNQQAIQILEKISQPVVVAIVGLYRTGKSYLMNHLAGQNHGFPLGSTVQSETKGIWMWCVPHPSKPNHTLVLLDTEGLGDVEKGDPKNDSWIFALAVLLCSTFVYNSMSTINHQALEQLHYVTELTELIKAKSSPRPDGVEDSTEFVSFFPDFLWTVRDFTLELKLNGHPITEDEYLENALKLIQGNNPRVQTSNFPRECIRRFLPKRKCFVFDRPTNDKDLLANIEKVSEKQLDPKFQEQTNIFCSYIFTHARTKTLREGITVTGNRLGTLAVTYVEAINSGAVPCLENAVITLAQRENSAAVQRASDYYSQQMAQRVKFPTDTLQELLDVHAACEREAIAIFMEHSFKDENQEFQKKFMETTMNKKGDFLLQNEESSVQYCQAKLNELSKGLMESISAGSFSVPGGHKLYMETKERIEQDYWQVPRKGVKAKEVFQRFLESQMVIEESILQSDKALTDREKAVAVDRAKKEAAEKEQELLKQKLQEQQQQMEAQVKSRKENIAQLKEKLQMEREHLLREQIMMLEHTQKVQNDWLHEGFKKKYEEMNAEISQFKRMIDTTKNDDTPWIARTLDNLADELTAILSAPAKLIGHGVKGVSSLFKKHKLPFKGGRADPAFLYKVVDLEGPRFEQKLISEEDLNMHTGHHHHHH
[3]
  binding to GMP agarose beads: did not bind
[4]
  binding to GDP agarose beads: did not bind
[5]
  binding to GTP agarose beads: did not bind
